According to ChEMBL document CHEMBL3779853, “Target β-catenin/CD44/Nanog axis in colon cancer cells by certain N'-(2-oxoindolin-3-ylidene)-2-(benzyloxy)benzohydrazides” (Bioorg Med Chem Lett, 2016):
The source made the active and inactive calls. The calls are words filed in the database; no cut-off is given here.

Assays:
HT-29 = assay: Cytotoxicity against low CD44 expressing human HT-29 cells after 48 hrs by WST-1 assay; assay type: functional, cell-based
LoVo [1] = assay: Cytotoxicity against high CD44 expressing human LoVo cells after 48 hrs by WST-1 assay; assay type: functional, cell-based
[2] = Cell cycle arrest in high CD44 expressing human […] cells assessed as accumulation at G2 phase at 5 to 10 uM; assay type: functional, cell-based
[3] = Cell cycle arrest in low CD44 expressing human […] cells assessed as accumulation at M phase at 5 to 10 uM; assay type: functional, cell-based
[4] = Cell cycle arrest in high CD44 expressing human […] cells assessed as accumulation at S phase at 5 to 10 uM; assay type: functional, cell-based
LoVo [5] = assay: Downregulation of Oct-4 expression in human LoVo cells at 10 uM after 48 hrs by RT-PCR analysis; assay type: functional, cell-based
[6] = Inhibition of Wnt/beta catenin pathway (unknown origin) in human LoVo cells transfected with TCF/LEF reporter plasmid assessed as GFP expression at 2.5 uM after 48 hrs by flow cytometric analysis (reference value: 3.7%); assay type: cell-based; set-up: scale not given: the % may be the effect or the level left
[7] = Inhibition of Wnt/beta catenin pathway assessed as downregulation of CD44-mediated Nanog expression in human LoVo cells at 2.5 to 10 uM after 48 hrs by RT-PCR analysis; assay type: cell-based
LoVo [8] = assay: Downregulation of Sox2 expression in human LoVo cells at 10 uM after 48 hrs by RT-PCR analysis; assay type: functional, cell-based
[9] = Cell cycle arrest in low CD44 expressing human […] cells assessed as accumulation at G2 phase at 5 to 10 uM; assay type: functional, cell-based
[10] = Inhibition of Wnt/beta catenin pathway (unknown origin) in human LoVo cells transfected with TCF/LEF reporter plasmid assessed as GFP expression at 10 uM after 48 hrs by flow cytometric analysis (reference value: 3.7%); assay type: cell-based; set-up: scale not given: the % may be the effect or the level left
[11] = Cell cycle arrest in high CD44 expressing human […] cells assessed as accumulation at M phase at 5 to 10 uM; assay type: functional, cell-based
[12] = Inhibition of Wnt/beta catenin pathway (unknown origin) in human LoVo cells transfected with TCF/LEF reporter plasmid assessed as GFP expression at 5 uM after 48 hrs by flow cytometric analysis (reference value: 3.7%); assay type: cell-based; set-up: scale not given: the % may be the effect or the level left
[13] = Cell cycle arrest in low CD44 expressing human […] cells assessed as accumulation at S phase at 5 to 10 uM; assay type: functional, cell-based
TCF4-CTNNB1 complex = molecular target: T1, TCF4-CTNNB1 complex (Homo sapiens, UniProt P35222+Q9NQB0); assay: Inhibition of human GST tagged Tcf4/beta catenin interaction after 2 hrs using fluorescent AP Attophos substrate by ELISA analysis; assay type: protein-complex assay
T1 sequence (P35222 whole entry): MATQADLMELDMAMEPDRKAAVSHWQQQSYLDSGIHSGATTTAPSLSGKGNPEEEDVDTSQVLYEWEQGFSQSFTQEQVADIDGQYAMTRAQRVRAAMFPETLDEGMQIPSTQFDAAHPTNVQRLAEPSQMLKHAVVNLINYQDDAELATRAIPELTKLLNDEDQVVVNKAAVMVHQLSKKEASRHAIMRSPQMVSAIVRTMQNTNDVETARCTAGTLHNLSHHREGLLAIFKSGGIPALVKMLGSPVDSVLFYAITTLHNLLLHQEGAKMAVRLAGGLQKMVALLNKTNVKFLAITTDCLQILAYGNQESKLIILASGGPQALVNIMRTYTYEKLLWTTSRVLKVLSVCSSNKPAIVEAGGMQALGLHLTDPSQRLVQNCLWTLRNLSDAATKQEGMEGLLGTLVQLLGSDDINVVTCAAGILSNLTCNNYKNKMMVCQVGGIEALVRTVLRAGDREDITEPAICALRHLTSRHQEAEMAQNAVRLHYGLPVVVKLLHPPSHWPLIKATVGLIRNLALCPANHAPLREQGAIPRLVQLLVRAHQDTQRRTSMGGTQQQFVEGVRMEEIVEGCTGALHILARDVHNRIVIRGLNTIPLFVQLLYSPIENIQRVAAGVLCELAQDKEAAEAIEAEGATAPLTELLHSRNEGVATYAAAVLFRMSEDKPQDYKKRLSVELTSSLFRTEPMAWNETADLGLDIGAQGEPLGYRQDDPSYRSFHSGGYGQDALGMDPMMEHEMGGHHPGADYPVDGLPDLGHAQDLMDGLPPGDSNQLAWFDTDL
T1 sequence (P15884 whole entry): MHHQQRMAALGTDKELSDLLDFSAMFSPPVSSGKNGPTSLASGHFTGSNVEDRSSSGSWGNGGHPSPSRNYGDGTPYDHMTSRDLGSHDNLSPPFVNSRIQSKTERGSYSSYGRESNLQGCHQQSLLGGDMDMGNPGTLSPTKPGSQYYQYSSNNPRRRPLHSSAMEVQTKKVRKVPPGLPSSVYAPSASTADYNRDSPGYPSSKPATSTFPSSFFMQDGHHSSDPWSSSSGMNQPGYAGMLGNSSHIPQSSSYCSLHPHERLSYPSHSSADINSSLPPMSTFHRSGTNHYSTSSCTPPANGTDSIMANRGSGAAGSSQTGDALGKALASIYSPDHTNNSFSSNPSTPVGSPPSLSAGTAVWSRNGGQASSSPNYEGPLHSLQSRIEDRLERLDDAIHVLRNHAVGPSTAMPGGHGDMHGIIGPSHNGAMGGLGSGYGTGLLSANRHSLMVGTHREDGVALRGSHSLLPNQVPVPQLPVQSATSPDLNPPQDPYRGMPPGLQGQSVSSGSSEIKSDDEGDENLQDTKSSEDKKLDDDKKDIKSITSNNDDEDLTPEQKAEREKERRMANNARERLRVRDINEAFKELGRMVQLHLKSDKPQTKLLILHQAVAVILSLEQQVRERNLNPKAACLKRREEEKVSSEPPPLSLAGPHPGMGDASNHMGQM

[14] = Homo sapiens, HT-29, 48 h, read-out: IC50

Compound	IC50 (HT-29; ht-29)	IC50 (LoVo [1])	IC50 (TCF4-CTNNB1 complex)	IC50 (HT-29; [14])	further results
CN(CCO)CN1C(=O)/C(=N\NC(=O)c2ccccc2OCc2ccccc2)c2ccccc21	Not Active	22.4 µM	–	–	–
CN(Cc1ccccc1)CN1C(=O)/C(=N\NC(=O)c2ccccc2OCc2ccccc2)c2ccccc21	Not Active	24.9 µM	–	–	Activity [2]: Active; Activity [3]: inactive; Activity [4]: Active; Activity (LoVo [5]): inactive; Activity [6]: 2.2%; Activity [7]: Dose-dependent effect; Activity (LoVo [8]): inactive; Activity [9]: inactive; Activity [10]: 1.7%; Activity [11]: Active; Activity [12]: 2%; Activity [13]: inactive
O=C(N/N=C1\C(=O)N(CN2CCOCC2)c2ccccc21)c1ccccc1OCc1ccccc1	Not Active	16.3 µM	–	–	–
COc1c(CC(C)OC(=O)Oc2ccc(O)cc2)c2c3c(CC(C)OC(=O)c4ccccc4)c(OC)c(=O)c4c(O)cc(OC)c(c5c(OC)cc(O)c(c1=O)c52)c43 (centres undefined)	–	–	3.2 µM	–	–
CCCN(CCC)CN1C(=O)/C(=N\NC(=O)c2ccccc2OCc2ccccc2)c2ccccc21	–	19.8 µM	–	95.5 µM	–
CCCCN(CCCC)CN1C(=O)/C(=N\NC(=O)c2ccccc2OCc2ccccc2)c2ccccc21	–	27.2 µM	–	203 µM	–
CN(Cc1ccccc1)CN1C(=O)/C(=N\NC(=O)c2ccccc2OCc2ccc(Cl)cc2)c2ccccc21	Not Active	17.2 µM	–	–	–
COc1c(CC(C)OC(=O)c2c(C)cc(O)cc2O)c2c3c(CC(C)OC(=O)c4c(C)cc(O)cc4O)c(OC)c(=O)c4c(O)cc(OC)c(c5c(OC)cc(O)c(c1=O)c52)c43 (centres undefined)	–	–	4.1 µM	–	–
O=C(N/N=C1\C(=O)N(CN2CCCCC2)c2ccccc21)c1ccccc1OCc1ccccc1	Not Active	22.4 µM	–	–	–
CCCC(=O)c1cc2c(c(O)c1C)C(=O)C(=O)c1c(O)cccc1-2	–	–	2.4 µM	–	–
CCN(CC)CN1C(=O)/C(=N\NC(=O)c2ccccc2OCc2ccccc2)c2ccccc21	–	14.8 µM	–	84.8 µM	–
CN(C)CN1C(=O)/C(=N\NC(=O)c2ccccc2OCc2ccccc2)c2ccccc21	–	12.9 µM	–	48.8 µM	–
COC(=O)c1c(C)cc2c(c1O)[C@@]1(O)C(=O)c3cc4c(c(O)c3C(=O)[C@]1(OC)[C@H](O)C2)C(=O)C=C(NC1O[C@H](C)[C@@H](OC)[C@H](O)[C@@H]1OC)C4=O (some centres undefined)	–	–	0.64 µM	–	–
